The values below come from US7144881B2, “Arylcyclopropylcarboxylic amides as potassium channel openers” (Bristol-Myers Squibb Company, priority 2002, dated 2006).

The target of test [1] is T1, mKCNQ2 channels (Mus musculus, UniProt Q9Z351).
T1 construct: expressed in transfected cells
Nature of the test: Whole-cell patch-clamp recordings of mKCNQ2 currents. The format is cell-based. As to conditions: HEK 293 stable cell line expressing mKCNQ2. On the procedure:
Whole-cell patch-clamp recordings were made from an HEK 293 stable cell line expressing mKCNQ2 channels, maintained in culture for 1–2 days. Patch pipettes had initial resistances of 2.5–4 MΩ. Currents were recorded with an EPC-9 amplifier (HEKA, Lambrecht, Germany) controlled with software (Pulse, HEKA) run on a standard lab PC. Series resistance compensation was used during current recording, and set at 80%. The series resistance (R) and cell capacitance (C) were determined electronically by subtracting the capacitive currents at the onset and offset of a 5 mV voltage step. The cancellation of whole-cell capacitive transients was virtually complete in all cells. Analog current signals were low-pass filtered at 2.9 kHz using a four-pole Bessel filter −3 dB) and stored on a local network server computer at a sampling rate of […]. All recordings were performed at room temperature (20–22° C.). The pipette solution contained (mM): KCl, 150; CaCl2, 2.5; EGTA, 5; MgCl2, 1; HEPES, 10; pH to 7.3 with KOH, and Osmolality of 290–300 mOsm. The extracellular solution contained (mM): NaCl, 140; KCl, 2.5; CaCl2, 2.5; MgCl2, 1; glucose, 10; HEPES, 10; pH to 7.3 with NaOH, and Osmolality of 305–310 mOsm […]
(In general: In patch-clamp work, channel activity is measured electrically.)

In test [2] the target is voltage-gated K+ channel KCNQ2 (Homo sapiens, UniProt O43526). Nature of the test: Thallium flux assay for openers of KCNQ potassium channels. As to conditions: 10 point concentration series, 50% of the maximal response. The format is cell-based. The source says: A thallium flux assay was used to detect and characterize openers of KCNQ potassium channels. The thallium assay is generally described in International application WO 02/31508 published Apr. 18, 2002. More specifically, the thallium influx assay to detect compounds that block or open the voltage-gated K^+ channel KCNQ2 is described in Example IV of the published WO 02/31508 application.
For data analysis, the amplitude of the average of the negative controls was subtracted from all wells. The amplitudes of the test compounds were then compared to the value of four standard deviations of the negative control wells. The lowest concentration of a test compound sufficient to generate a signal amplitude greater than or equal to four standard deviations from the amplitude of the negative controls was defined as the minimal active concentration.
For generating EC50 values, compounds were serially diluted in 1:3 volume increments to produce a 10 point concentration series. EC50 values were calculated by fitting the resulting amplitudes to a single-site logistic equation. EC50 was defined as the concentration of test compound required to yield 50% of the maximal response. Maximal response (Maximal opening) was the largest signal amplitude above the negative control generated by any concentration of a test compound.

The EC50 is the midpoint of the concentration-response curve. A high value points to weaker potency. For the molecule `O=C(N[C@@H](CO)c1ccc2ccccc2c1)C1CC1c1ccc(F)cc1` (stereo partly drawn) [Example 13, 2-(4-Fluoro-phenyl)-cyclopropanecarboxylic acid(2-hydroxy-1-naphthalen-2-yl-ethyl)-amide], the concentration giving a half-maximal response (EC50) in test [1] (@ −40 mV, room temperature) is 0.597 µM; in test [2], 12 nM. Moreover, in test [1] (Imax from Hill-type curve fit), the “Imax (%)” value came to 1232%.

`C[C@H](NC(=O)[C@@H]1C[C@H]1c1ccccc1)c1cccc(-c2cccnc2)c1` [Example 32, (S)-2-Phenyl-cyclopropanecarboxylicacid [1-(3-pyridin-3-yl-phenyl)-ethyl]-amide] came in with a concentration giving a half-maximal response (EC50) in test [2] of 1 nM. Same read-out and setting: under `O=C(N[C@@H](CO)c1ccc2ccccc2c1)C1CC1c1ccccc1Cl` (stereo partly drawn) [Example 9, 2-(2-Chloro-phenyl)-cyclopropanecarboxylic acid(2-hydroxy-1-naphthalen-2-yl-ethyl)-amide] stands 22 nM; under `C[C@H](NC(=O)C1CC1c1cccc(F)c1)c1cccc(-c2ccc(Cl)nc2)c1` (stereo partly drawn) [Example 34, (S)-2-(3-Fluoro-phenyl)-cyclopropanecarboxylicacid {1-[3-(6-chloro-pyridin-3-yl)-phenyl]-ethyl}-amide], 2210 nM; under `O=C(N[C@@H](CO)c1ccc2ccccc2c1)C1CC1c1ccccc1` (stereo partly drawn) [Example 15, 2-(phenyl)-cyclopropanecarboxylic acid(2-hydroxy-1-naphthalen-2-yl-ethyl)-amide], 1 nM. `O=C(N[C@@H](CO)c1ccc2ccccc2c1)C1CC1c1ccccc1F` (stereo partly drawn) [Example 11, 2-(2-Fluoro-phenyl)-cyclopropanecarboxylic acid(2-hydroxy-1-naphthalen-2-yl-ethyl)-amide] yielded an EC50 in test [2] of 1440 nM. `O=C(N[C@@H](CO)c1ccc2ccccc2c1)C1CC1c1cc(F)ccc1F` (stereo partly drawn) [Example 14, 2-(2,5-Difluoro-phenyl)-cyclopropanecarboxylic acid(2-hydroxy-1-naphthalen-2-yl-ethyl)-amide] displayed an EC50 in test [2] of 1 nM. This EC50 is about 1400-fold lower than that of the molecule before.
